Earlier results on two compounds are cited in patent US6716451B1 (Soft Gel Technologies, Inc., priority 1999, dated 2004).

In series [1] the test system is human breast cancer cell. The following applies: in vitro.
The conditions of series [2]: subjects taking at least 100 IU daily; more than 12,000 adults.

Like-named read-outs stand apart in the source and are kept apart here.

For `CC(C)=CCC/C(C)=C/CC/C(C)=C/CC[C@]1(C)CCc2cc(O)c(C)c(C)c2O1` [γ-tocotrienol], the “inhibition of growth of human breast cancer cells compared with Tamoxifen” value in series [1] is “more effectively than the popular breast cancer drug, Tamoxifen”.

As for Vitamin E, the adverse effects entry runs as follows: (50 mg/day for 1 to 8.2 years, cardiovascular clinical studies) “without any adverse effects”; (oral 50 to 400 IU per day, double-blind clinical studies) “did not show any adverse effects”. In addition, the “decrease in heart disease risk” value in series [2] is 40%.
